Results: ChEMBL document CHEMBL5257160, “Siderophore conjugates to combat antibiotic-resistant bacteria” (2023)
Values after ≈ are worked out from the molar mass of the structure shown. Numbered stars: 1 amine (or outer) side, 2 acyl side, 3 side chain; on linkers, the order of the positions; unused ones are H or OH. Square brackets hold non-standard residues; d marks the D form. Peptide text beside a SMILES is read from it. X1 = Cn1c(=O)n([C@@H]2S[C@H]([C@H](O)[C@@H](N[*:1])C(=O)[*:2])[C@@H](O)[C@H]2O)cc/c1=N\C(N)=O; Orn(N5-OH,N5-Ac) = CC(=O)N(O)CCC[C@H](N)C(=O)O

Assays:
Type in all cases: functional
[1] = system: Escherichia coli; assay: Antibacterial activity against Escherichia coli assessed as inhibition of bacterial growth
[2] = system: Klebsiella sp.; assay: Antibacterial activity against Klebsiella sp. assessed as inhibition of bacterial growth
[3] = system: Enterobacter sp.; assay: Antibacterial activity against Enterobacter sp. assessed as inhibition of bacterial growth
[4] = system: Serratia sp.; assay: Antibacterial activity against Serratia sp. assessed as inhibition of bacterial growth; details: Serratia sp. (in: enterobacteria)
[5] = system: Streptococcus pneumoniae; assay: Antibacterial activity against Streptococcus pneumoniae assessed as inhibition of bacterial growth
[6] = system: Acinetobacter baumannii; assay: Antibacterial activity against carbapenem - resistant Acinetobacter baumannii
[7] = system: Proteus sp.; assay: Antibacterial activity against Proteus sp. assessed as inhibition of bacterial growth; details: Proteus sp. (in: enterobacteria)
[8] = system: Stenotrophomonas maltophilia; assay: Antibacterial activity against Stenotrophomonas maltophilia assessed as inhibition of bacterial growth
[9] = system: Pseudomonas aeruginosa; assay: Antibacterial activity against Pseudomonas aeruginosa assessed as inhibition of bacterial growth
[10] = system: Enterobacteriaceae; assay: Antibacterial activity against Enterobacteriaceae assessed as inhibition of bacterial growth
[11] = system: Yersinia enterocolitica; assay: Antibacterial activity against Yersinia enterocolitica assessed as inhibition of bacterial growth in iron depleting media incubated for 20 hrs by CLSI protocol based assay

CC(C)(O/N=C(\C(=O)N[C@@H]1C(=O)N2C(C(=O)[O-])=C(C[N+]3(CCNC(=O)c4ccc(O)c(O)c4Cl)CCCC3)CS[C@H]12)c1csc(N)n1)C(=O)O [CEFIDEROCOL]
MIC90 [1]: 0.25 µg/mL (≈ 0.332 µM) | MIC90 [2]: 0.25 µg/mL (≈ 0.332 µM) | MIC90 [3]: 0.25 µg/mL (≈ 0.332 µM) | MIC90 [4]: 0.25 µg/mL (≈ 0.332 µM)

CC(=O)N(O)CCC[C@H](NC(=O)[C@H](CCCN(O)C(C)=O)NC(=O)[C@@H](N)CCCN(O)C(C)=O)C(=O)N[C@@H](CO)C(=O)N[C@@H](C(=O)O)[C@@H](O)[C@H]1S[C@@H](n2cc/c(=N\C(N)=O)n(C)c2=O)[C@H](O)[C@@H]1O (H-[Orn(N5-OH,N5-Ac)][Orn(N5-OH,N5-Ac)][Orn(N5-OH,N5-Ac)]S[X1]-OH)
MIC [1]: 0.005 µg/mL (≈ 0.00504 µM) | MIC [5]: 0.01 µg/mL (≈ 0.0101 µM)

C[C@@H]1S[C@@H]2[C@H](NC(=O)/C(=N/OC(C)(C)C(=O)O)c3csc(N)n3)C(=O)N2C(C(=O)[O-])=C1C[N+]12CCC(CNC(=O)c3ccc(O)c(O)c3Cl)(CC1)C2
MIC [6]: ≤ 0.03 µg/mL

CC(C)(O/N=C(\C(=O)N[C@@H]1C(=O)N(S(=O)(=O)O)C1CNC(=O)NCc1cc(=O)c(O)cn1O)c1csc(N)n1)C(=O)O (some centres undefined)
MIC90 [3]: 8 µg/mL (≈ 12.6 µM) | MIC90 [7]: 0.12 µg/mL (≈ 0.19 µM) | MIC90 [8]: 0.25 µg/mL (≈ 0.395 µM)

C[C@H]1[C@H](NC(=O)/C(=N\OCc2cc(=O)c(O)cn2O)c2csc(N)n2)C(=O)N1OS(=O)(=O)O
MIC [9]: 2 µg/mL (≈ 3.96 µM) | MIC [10]: ≤ 1 µg/mL

CC(=O)N(O)CCC[C@H](NC(=O)[C@H](CCCN(O)C(C)=O)NC(=O)[C@@H](N)CCCN(O)C(C)=O)C(=O)N[C@@H](CCC(=O)NCCNC(=O)CC[C@@H](NC(=O)c1ccc(N(C)Cc2cnc3nc(N)nc(N)c3n2)cc1)C(=O)O)C(=O)O
MIC [5]: 0.00196 µg/mL (≈ 0.00172 µM) | MIC [11]: 0.0078 µg/mL (≈ 0.00683 µM)
